Measured values as given in patent US5627160A, “L-2',3'-dideoxy nucleoside analogs as anti-hepatitis B (HBV) and anti-HIV agents” (priority 1993, dated 1997).
“Also recorded” adds a separate entry of the source. Read-outs that look alike come from different tables or passages of the source.

Columns and labels:
[1] = test system: human immunodeficiency virus (HIV); details: Larder et al., 1990, cited from earlier work
[2] = test system: Hepatitis B viral infections; details: chronic HBV infection; foscarnet in fulminant hepatitis; cited from earlier work
Hepatitis B virus = details: Chang et al., 1992; cited from earlier work
HBV = assay: Inhibition of HBV replication (secreted viral DNA, Southern analysis) in 2.2.15 cells; format: cell-based, Hepatitis B virus (in human hepatoma cell line 2.2.15); details: for IC50: Hepatitis B virus, 144 h, 2.2.15 cells, read-out: Anti-HBV ID50; for Activity against HBV, comparison / Inhibition of HBV DNA replication: in words
Procedure: The biological activity of the present compounds was assessed as described by Doong, S-L, et al., Proc. Natl. Acad. Sci. U.S.A 88, 8495-8499 (1991). The human hepatoma cell line carrying the HBV (designated 2.2.15) kindly provided by Dr. G. Acs was used in the study. Price, et al., Proc. Natl. Acad. Sci. U.S.A. 86, 8541 (1989). Briefly, six day-old cultures were treated with varying concentrations of the drug in the culture medium (Minimum essential medium with Earl's salts and 10% fetal bovine serum). The drug was left in the culture medium for a period of 3 days after which period the medium was aspirated and fresh medium containing the same concentration(s) of the drug was added. At the end of the subsequent 3 day period the culture medium was harvested. The culture medium was processed for obtaining the virions by the polyethylene glycol precipitation method (Doong, et al., supra). Viral DNA thus recovered from the secreted particles was subjected to Southern analysis. Inhibition of the viral replication was determined by the comparison of the viral DNA from drug-treated versus control cultures not treated with the drug.

[3] = Cellular toxicity in T-lymphoblastoic cell line (CEM), cell numbers 3 days post treatment; format: cell-based; details: human; CEM cells, 3 days; read-out: Cytotoxicity CEM Cells ID50
Procedure: (§1) To determine the cellular toxicity of the present compounds, the T-lymphoblastoic cell line (CEM) was used. Cells were subjected to varying concentrations of the drug(s) and cell numbers were determined 3 days post treatment by the method described by Chen, C-H and Cheng, Y-C J. Biol. Chem., 264, 11934 (1989). Concentrations of the drug which would result in 50% killing of the cell populations were determined from the plot generated by representing cell numbers corresponding to the individual drug concentrations.

CEM Cells = assay: as above; format: cell-based; details: in words, β-L-ddC / β-L-FddC versus ddC
Procedure: as §1

HIV-1 (HTLV-IIIB Strain) = assay: Anti-HIV drug susceptibility assay in MT-2 cells (MTT dye reduction); format: cell-based; details: for IC50: MT-2 cells; for Anti-HIV activity compared with ddC: in words
Procedure: Drug susceptibility assay for determining the effectiveness of the compounds of the present invention against HIV in MT-2 cells is a modification of the assay described in Mellors, et al., Molecular Pharmacology, 41, 446 (1992). Drug-mediated inhibition of virus-induced cell toxicity was measured by the A595 of MTT ([3-I 4,5-dimethyl thiazol-2-yl]-2,3-diphenyltetrazolium bromide) (Sigma M-2128). Triplicate wells of a 96 well plate which contains 1×10^4 MT2 cells (AIDS-repository) were infected with HIV-1 (HTLV-IIIB Strain-R.C. Gallo) at a multiplicity of 0.01 TCID50 /cell. MT-2 cells in RPMI 1640 media supplemented with 10% dialysized fetal bovine and 100 ug/ml Kanamycin were infected with virus and immediately added to serial dilution of the drug. After 5 days, 20 ul of MTT dye (2.5 mg/ml in PBS) was added per well. At the end of a four hour incubation period 150 ul of acidified 2-propanol with NP-40 non-ionic detergent was added. After the crystals of dye dissolve (usually 1-2 days), the plates are read on a micro-plate reader. Using this MTT-dye reduction method (as set forth by Larder, et al., Antimicrobial Agents and Chemotherapy, 34, 436 (1990), the percentage of protection can be calculated using the formula [(a-b/c-b)×100] in which a=A595 of drug treated cells, b is […] and c is the A595 of the non-drug infected cells.

[4] = test system: mitochondrial DNA (mt DNA)
Procedure: (§2) The effects of the various drug concentrations on mitochondrial DNA (mt DNA) was evaluated by the method described by Chen and Cheng, supra. CEM cells treated with varying concentrations of the drug were collected by centrifugation. After washing the cells with phosphate buffered saline, cells were lysed by suspending the cells in 10 mM Tris-HCl (pH 7.0) and repeating freeze thaw cycles. The resulting cells were then subjected to RNase A treatment at a final enzyme concentration of 10 ug/ml, followed by proteinase K treatment (100 ug/ml) for 1 hour. The DNA thus obtained by this procedure was then immobilized on nylon membrane after the addition of 0.8 vol of NaI and boiling for 10 minutes. Hybridization of the resulting DNA to a mt DNA specific probe was performed by following the method of Doong, S-L, supra and autoradiography was also performed. Quantitative estimates were obtained by scanning densitometer. The blots were stripped of the mtDNA probe and rehybridized to human Alu sequence probe to determine the amounts of DNA for normalization and estimation of absolute amounts of the mt DNA.

in vitro = details: human, cem cells
Procedure: as §2

[5] = in words; cited from earlier work
[6] = Human immunodeficiency virus 1, IIIB, MT2, 120 h, read-out: ID50 concentration required to inhibit viral replication (HIV)
[7] = Human immunodeficiency virus 1, MT2, 120 h, HIV-1 HTLV-IIIB, Table 1, read-out: Anti-HIV ID50

For `Nc1ccn([C@H]2C=C[C@@H](CO)O2)c(=O)n1` [Compound D4C, 2',3'-dideoxy-2',3'-didehydrocytidine], the “Activity against human immunodeficiency virus” value [1] is given as “significant activity”.
For `Nc1ncnc2c1ncn2[C@H]1C[C@H](F)[C@@H](CO)O1` [3'-fluoro-2',3'-dideoxyadenosine], the “Activity against human immunodeficiency virus” value [1] is given as “significant activity”.
In the case of `Cc1cn([C@H]2C=C[C@@H](CO)O2)c(=O)[nH]c1=O` [Compound D4T, 3'-deoxy-2',3'-didehydrothymidine], the “Activity against human immunodeficiency virus” value [1] is listed as “significant activity”.
For `Nc1nc2c(ncn2[C@H]2C=C[C@@H](CO)C2)c(=O)[nH]1` [Carbovir, carbocyclic analog of 2',3'-dideoxy-2',3'-didehydroguanosine], the “Activity against human immunodeficiency virus” value [1] is given as “significant activity”.
In the case of `O=C(O)P(=O)(O)O` [foscarnet], the “Success of therapy of hepatitis B” value [2] is listed as “little, if any, success”.
In the case of `Nc1ncnc2c1ncn2[C@@H]1O[C@H](CO)[C@@H](O)[C@@H]1O` [adenine arabinoside], the “Success of therapy of hepatitis B” value [2] is given as “limited success”.
For `OC[C@@H]1CC[C@H](n2cnc3c(O)ncnc32)O1` [DDI, 2',3'-dideoxyinosine], the “Activity against human immunodeficiency virus” value [1] is listed as “significant activity”.
In the case of `Nc1ncnc2c1ncn2[C@@H]1O[C@H](COP(=O)(O)O)[C@@H](O)[C@@H]1O` [ara-AMP], the “Success of therapy of hepatitis B” value [2] is listed as “limited success”.
For `Cc1cn([C@H]2C[C@H](N=[N+]=[N-])[C@@H](CO)O2)c(=O)[nH]c1=O` [AZT, 3'-azido-3'deoxythymidine], the “Success of therapy of hepatitis B” value [2] is listed as “little, if any, success”.
In the case of `Cc1cn([C@H]2C[C@H](F)[C@@H](CO)O2)c(=O)[nH]c1=O` [3'-fluoro-3'-deoxythymidine], the “Activity against human immunodeficiency virus” value [1] is given as “significant activity”.
For `Nc1ccn([C@@H]2CS[C@H](CO)O2)c(=O)n1` (relative stereo) [(±) SddC, (+) and (-)-2',3'-Dideoxy-3'-thiacytidine], the “Activity against Hepatitis B virus in culture” value (shortened to “Activity … in culture”) (Hepatitis B virus) is given as “potent inhibitors of Hepatitis B virus”.
For `Nc1nc(=O)n([C@@H]2CC[C@H](CO)O2)cc1F` [β-L-FddC, 1-(2,3-dideoxy-beta-L-ribofuranosyl)-5-fluorocytosine], the IC50 (HBV) was 10 nM, the “Activity against HBV, comparison” value (HBV) was “several fold higher activity against HBV” and the “Inhibition of HBV DNA replication” value (HBV) was “efficiently inhibited”. For the same compound, the CC50 at 72 h [3] was 67000 nM, the “Cellular cytotoxicity, comparison with ddC” value (shortened to “Cellular cytotoxicity”) (CEM Cells) was “considerably less” and the “Difference of anti-HIV ID50, β-L-FddC versus ddC” value (HIV-1 (HTLV-IIIB Strain); 0.007 vs 0.028 micromolar) was 4 fold. For the same compound, the IC50 (HIV-1 (HTLV-IIIB Strain); [6]) was 7 nM, the “Anti-HIV activity compared with ddC” value (HIV-1 (HTLV-IIIB Strain)) was “significantly more effective than ddC; also recorded: several fold higher activity against HIV” and the “Effect on host mitochondrial DNA” value [4] was “relatively little effect”. The “Toxicity associated with dose limiting neuropathy” value [4] was “virtually no toxicity associated with dose limiting neuropathy” and the IC50 (in vitro) was > 100000 nM.
For `Nc1ccn([C@@H]2CC[C@H](CO)O2)c(=O)n1` [β-L-ddC, 1-(2,3-dideoxy-beta-L-ribofuranosyl)cytosine], the IC50 (HBV) was 10 nM, the “Activity against HBV, comparison” value (HBV) was “several fold higher activity against HBV” and the “Inhibition of HBV DNA replication” value (HBV) was “efficiently inhibited”. For the same compound, the CC50 at 72 h [3] was 70000 nM, the “Cellular cytotoxicity” value (CEM Cells) was “considerably less” and the IC50 (HIV-1 (HTLV-IIIB Strain); [7]) was 350 nM. For the same compound, the IC50 (in vitro) was > 100000 nM.
In the case of `Nc1ccn([C@H]2CC[C@H](CO)S2)c(=O)n1` [alpha-L-ddSC, 1(2,3-dideoxy-4-thio-alpha-L-ribofuranosyl) cytosine], the IC50 (HBV) is reported as > 500 nM, the CC50 at 72 h [3] is reported as > 100000 nM and the IC50 (HIV-1 (HTLV-IIIB Strain); [7]) is reported as > 100000 nM.
In the case of `Nc1nc2c(ncn2COCCO)c(=O)[nH]1` [acyclovir], the “Success of therapy of hepatitis B” value [2] is given as “little, if any, success”.
For `Nc1ccn([C@H]2CS[C@@H](CO)O2)c(=O)n1` (stereo in doubt) [(-)isomer, (-)-2',3'-Dideoxy-3'-thiacytidine], the “Activity … in culture” value (Hepatitis B virus) is listed as “potent activity” and the Toxicity (Hepatitis B virus) is listed as “relatively low toxicity”.
For `Nc1nc(=O)n([C@@H]2CS[C@H](CO)O2)cc1F` (relative stereo) [(±)5-FSddC], the “Activity … in culture” value (Hepatitis B virus) is given as “potent activity”.
In the case of `Nc1nc(=O)n([C@H]2CC[C@H](CO)O2)cc1F` [alpha-L-FddC, 1(2,3-dideoxy-alpha-L-ribofuranosyl)-5-fluorocytosine], the IC50 (HBV) is reported as 500 nM, the CC50 at 72 h [3] is reported as > 100000 nM and the IC50 (HIV-1 (HTLV-IIIB Strain); [7]) is reported as 300 nM.
For `[N-]=[N+]=N[C@H]1C[C@H](n2ccc(=O)[nH]c2=O)O[C@@H]1CO` [3'-azido-2',3'-dideoxyuridine], the “Activity against human immunodeficiency virus” value [1] is given as “significant activity”.
With `Nc1ccn([C@H]2CC[C@@H](CO)O2)c(=O)n1` [ddC, 1-(2,3-dideoxy-beta-D-ribofuranosyl)cytosine, reference compound] the IC50 (HBV) was 2800 nM, the CC50 at 72 h [3] was 28000 nM and the “Cellular cytotoxicity” value (CEM Cells) was “much more cytotoxic; also recorded: more cytotoxic than β-L-FddC”. The IC50 (HIV-1 (HTLV-IIIB Strain); [6]) was 28 nM, the “Anti-HIV activity compared with ddC” value (HIV-1 (HTLV-IIIB Strain)) was “less active against HIV” and the “Activity against human immunodeficiency virus” value [1] was “among the most potent inhibitors of HIV”. For the same compound, the “Activity against human immunodeficiency virus” value ([1]; listed as DDC) was “significant activity”, the Dose limiting toxicity [5] was “severe neuropathy” and the IC50 (in vitro) was 22 nM.
In the case of interferon alpha, the “Success of therapy of hepatitis B” value [2] is listed as “limited success”.
With `Nc1ccn([C@@H]2CC[C@H](CO)S2)c(=O)n1` [β-L-ddSC, 1-(2,3-dideoxy-4-thio-beta-L-ribofuranosyl)cytosine] the IC50 (HBV) was > 500 nM, the CC50 at 72 h [3] was > 100000 nM and the IC50 (HIV-1 (HTLV-IIIB Strain); [7]) was 70000 nM.
